Results taken from ChEMBL document CHEMBL1127948, “Synthesis and in vitro cytotoxicity of diastereoisomerically modified dolastatin 15 analogues” (Bioorg Med Chem Lett, 1994).

How the values were obtained:
CTLL = assay: In vitro interleukin-2-dependent proliferation of the murine cytotoxlc T cell line (CTLL) was determined; type: functional, cell-based, Mus musculus
Osteoclast-like = assay: In vitro growth factor-dependent proliferation against murine bone marrow cell was determined; type: functional, cell-based, Mus musculus
L1210 = assay: In vitro growth factor-independent proliferation against murine leukemia L1210 was determined; type: functional, cell-based, Mus musculus
Jurkat = assay: In vitro growth factor-independent proliferation against human leukemia T cell line jurkat was determined; type: functional, cell-based
[1] = tested on: Panel leukemia (Carcinoma cell lines); assay: Antiproliferative effect against continuous human leukemia cell lines and peripheral blood cells from patients with acute myeloid leukemia was determined; (0.1 to 1 nM); type: functional, cell-based
Lymphoma cell line = assay: Antiproliferative effect against human lymphoma cells was determined; (0.012 to 0.12 nM); type: functional, cell-based

Row | SMILES | IC50 (CTLL; Mus musculus, CTLL) [nM] | IC50 (Osteoclast-like; Mus musculus, Osteoclast-like) [nM] | IC50 (L1210; Mus musculus, L1210) [nM] | IC50 (Jurkat) [nM] | IC50 (CTLL; ctll) [nM] | IC50 (Osteoclast-like; osteoclast-like) [nM] | IC50 (L1210; l1210) [nM] | IC50 [1] [nM] | IC50 (Lymphoma cell line) [nM]
1 | COC1=CC(=O)N(C(=O)[C@H](OC(=O)[C@@H]2CCCN2C(=O)[C@@H]2CCCN2C(=O)[C@H](C(C)C)N(C)C(=O)[C@@H](NC(=O)[C@H](C(C)C)N(C)C)C(C)C)C(C)C)[C@@H]1Cc1ccccc1 | 400 | 120 | 1.78 | 700 | – | – | – | – | –
2 | COC1=CC(=O)N(C(=O)[C@H](OC(=O)[C@@H]2CCCN2C(=O)[C@@H]2CCCN2C(=O)[C@H](C(C)C)N(C)C(=O)[C@@H](NC(=O)[C@H](C(C)C)N(C)C)C(C)C)C(C)C)[C@H]1Cc1ccccc1 (stereo in doubt; form 1) | 8 | 40 | 0.3 | 10 | – | – | – | – | –
3 | COC1=CC(=O)N(C(=O)[C@H](OC(=O)[C@@H]2CCCN2C(=O)[C@@H]2CCCN2C(=O)[C@H](C(C)C)N(C)C(=O)[C@@H](NC(=O)[C@H](C(C)C)N(C)C)C(C)C)C(C)C)[C@H]1Cc1ccccc1 (stereo in doubt; form 2) | – | – | – | – | 10 | 50 | 0.31 | – | –
4 | COC1=CC(=O)N(C(=O)[C@@H](OC(=O)[C@@H]2CCCN2C(=O)[C@@H]2CCCN2C(=O)[C@H](C(C)C)N(C)C(=O)[C@@H](NC(=O)[C@H](C(C)C)N(C)C)C(C)C)C(C)C)[C@H]1Cc1ccccc1 [DOLASTATIN 15] | 3 | 17 | 0.15 | 5 | – | – | – | 0.1 | 0.012
